According to patent publication US9493426B2, “Quinazolinone derivatives useful as FGFR kinase modulators” (priority 2013, dated 2016):

What was measured:
FGFR3 = target: T1, FGFR3 (Homo sapiens, UniProt P22607); assay: Enzyme binding assay (KINOMEscan) FGFR3; conditions: pKd = -log Kd (M), read-out: FGFR3_pKd (converted)
T1 construct: purchased DiscoveRx Corporation
Experimental: (§1) Enzyme Binding Assays (KINOMEscan®)
(§2) Kinase enzyme binding affinities of compounds disclosed herein were determined using the KINOMEscan® technology performed by DiscoveRx Corporation, San Diego, Calif., USA (www.kinomescan.com).

FGFR2 = target: T2, FGFR2 (Homo sapiens, UniProt P21802); assay: Enzyme binding assay (KINOMEscan) FGFR2; conditions: pKd = -log Kd (M), read-out: FGFR2_pKd (converted)
T2 construct: purchased DiscoveRx Corporation
Experimental: as §1, §2

FGFR1 = target: T3, FGFR1 (Homo sapiens, UniProt P11362); assay: Enzyme binding assay (KINOMEscan) FGFR1; conditions: FGFR1_pKd, pKd = -log Kd (M)
T3 construct: purchased DiscoveRx Corporation
Experimental: as §1, §2

VEGFR2 = target: T4, VEGFR2 (Homo sapiens, UniProt P35968); assay: Enzyme binding assay (KINOMEscan) VEGFR2; conditions: pKd = -log Kd (M), read-out: VEGFR2_pKd (converted)
T4 construct: purchased DiscoveRx Corporation
Experimental: as §1, §2

FGFR4 = target: T5, FGFR4 (Homo sapiens, UniProt P22455); assay: Enzyme binding assay (KINOMEscan) FGFR4; conditions: pKd = -log Kd (M), read-out: FGFR4_pKd (converted)
T5 construct: purchased DiscoveRx Corporation
Experimental: as §1, §2

T5 sequence (P22455 22-802): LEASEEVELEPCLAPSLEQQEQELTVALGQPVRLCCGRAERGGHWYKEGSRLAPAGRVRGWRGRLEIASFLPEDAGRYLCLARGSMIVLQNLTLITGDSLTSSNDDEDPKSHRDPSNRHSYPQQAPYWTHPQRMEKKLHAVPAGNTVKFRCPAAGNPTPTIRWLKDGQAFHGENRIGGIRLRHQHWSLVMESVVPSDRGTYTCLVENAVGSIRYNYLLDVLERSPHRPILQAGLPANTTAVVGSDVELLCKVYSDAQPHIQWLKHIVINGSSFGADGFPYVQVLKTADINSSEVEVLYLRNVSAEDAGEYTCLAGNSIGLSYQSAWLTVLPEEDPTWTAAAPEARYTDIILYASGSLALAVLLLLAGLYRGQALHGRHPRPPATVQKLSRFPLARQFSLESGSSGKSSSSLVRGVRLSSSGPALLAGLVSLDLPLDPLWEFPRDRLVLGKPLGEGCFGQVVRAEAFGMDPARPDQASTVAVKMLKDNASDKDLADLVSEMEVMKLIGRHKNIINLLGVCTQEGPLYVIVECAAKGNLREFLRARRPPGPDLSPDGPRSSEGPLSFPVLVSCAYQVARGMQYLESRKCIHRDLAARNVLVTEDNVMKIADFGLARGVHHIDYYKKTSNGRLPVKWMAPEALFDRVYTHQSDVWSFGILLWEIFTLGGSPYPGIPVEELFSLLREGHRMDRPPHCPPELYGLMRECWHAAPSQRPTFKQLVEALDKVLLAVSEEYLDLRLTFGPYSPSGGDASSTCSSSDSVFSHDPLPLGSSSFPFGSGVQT
T2 sequence (P21802 22-821): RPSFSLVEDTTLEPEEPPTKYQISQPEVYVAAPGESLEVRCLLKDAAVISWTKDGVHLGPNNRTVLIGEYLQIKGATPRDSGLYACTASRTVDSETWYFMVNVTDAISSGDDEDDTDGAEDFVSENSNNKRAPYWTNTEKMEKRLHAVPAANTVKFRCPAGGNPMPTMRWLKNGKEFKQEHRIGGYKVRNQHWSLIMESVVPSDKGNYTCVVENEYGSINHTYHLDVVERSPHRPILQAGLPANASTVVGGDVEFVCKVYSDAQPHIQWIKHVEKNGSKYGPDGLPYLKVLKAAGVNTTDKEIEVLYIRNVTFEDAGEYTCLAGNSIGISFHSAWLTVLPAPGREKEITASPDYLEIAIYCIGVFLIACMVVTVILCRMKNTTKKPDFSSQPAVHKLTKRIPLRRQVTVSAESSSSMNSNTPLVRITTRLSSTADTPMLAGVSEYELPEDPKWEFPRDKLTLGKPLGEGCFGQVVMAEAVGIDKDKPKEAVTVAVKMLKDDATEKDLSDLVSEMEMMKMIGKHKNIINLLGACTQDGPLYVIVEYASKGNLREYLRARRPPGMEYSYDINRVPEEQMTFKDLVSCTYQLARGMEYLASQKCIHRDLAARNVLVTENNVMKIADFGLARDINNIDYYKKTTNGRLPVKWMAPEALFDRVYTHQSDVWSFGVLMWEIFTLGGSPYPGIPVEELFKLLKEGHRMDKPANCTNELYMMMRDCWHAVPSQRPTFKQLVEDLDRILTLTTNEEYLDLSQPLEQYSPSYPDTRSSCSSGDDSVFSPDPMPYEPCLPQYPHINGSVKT
T4 sequence (P35968 20-1356): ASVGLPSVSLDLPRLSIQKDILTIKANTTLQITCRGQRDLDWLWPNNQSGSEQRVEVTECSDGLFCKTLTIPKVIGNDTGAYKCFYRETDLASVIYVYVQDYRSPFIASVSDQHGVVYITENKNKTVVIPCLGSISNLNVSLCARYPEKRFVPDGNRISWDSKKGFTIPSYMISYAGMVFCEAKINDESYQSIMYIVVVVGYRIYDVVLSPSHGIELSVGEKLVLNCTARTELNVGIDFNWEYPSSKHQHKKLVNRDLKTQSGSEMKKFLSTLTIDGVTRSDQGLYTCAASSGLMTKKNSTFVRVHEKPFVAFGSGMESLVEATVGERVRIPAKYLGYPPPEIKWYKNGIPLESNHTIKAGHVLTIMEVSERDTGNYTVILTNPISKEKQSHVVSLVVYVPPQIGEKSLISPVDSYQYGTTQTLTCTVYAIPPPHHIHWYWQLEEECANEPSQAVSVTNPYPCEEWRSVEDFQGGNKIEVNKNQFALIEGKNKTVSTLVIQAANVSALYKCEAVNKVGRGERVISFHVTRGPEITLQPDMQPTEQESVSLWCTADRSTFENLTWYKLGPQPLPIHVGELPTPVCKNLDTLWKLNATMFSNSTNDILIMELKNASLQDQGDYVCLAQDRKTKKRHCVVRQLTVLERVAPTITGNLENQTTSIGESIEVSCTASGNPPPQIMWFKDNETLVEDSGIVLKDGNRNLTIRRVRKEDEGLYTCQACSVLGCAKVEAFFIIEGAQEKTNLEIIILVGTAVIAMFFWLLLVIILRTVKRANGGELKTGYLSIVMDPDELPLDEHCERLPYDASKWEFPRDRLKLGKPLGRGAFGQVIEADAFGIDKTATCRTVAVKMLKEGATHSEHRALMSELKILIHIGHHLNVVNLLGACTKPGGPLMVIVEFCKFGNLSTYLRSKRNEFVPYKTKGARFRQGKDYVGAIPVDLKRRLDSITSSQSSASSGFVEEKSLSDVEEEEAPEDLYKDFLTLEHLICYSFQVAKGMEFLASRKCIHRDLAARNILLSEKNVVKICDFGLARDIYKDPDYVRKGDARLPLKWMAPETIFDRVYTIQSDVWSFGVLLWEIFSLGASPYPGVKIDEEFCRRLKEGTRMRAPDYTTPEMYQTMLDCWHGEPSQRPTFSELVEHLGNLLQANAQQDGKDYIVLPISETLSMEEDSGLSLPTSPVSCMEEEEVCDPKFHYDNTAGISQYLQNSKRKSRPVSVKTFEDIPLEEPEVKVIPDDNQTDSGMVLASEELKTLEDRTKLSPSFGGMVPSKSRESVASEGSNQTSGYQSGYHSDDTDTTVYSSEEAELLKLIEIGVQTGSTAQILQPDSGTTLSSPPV
T1 sequence (P22607 23-806): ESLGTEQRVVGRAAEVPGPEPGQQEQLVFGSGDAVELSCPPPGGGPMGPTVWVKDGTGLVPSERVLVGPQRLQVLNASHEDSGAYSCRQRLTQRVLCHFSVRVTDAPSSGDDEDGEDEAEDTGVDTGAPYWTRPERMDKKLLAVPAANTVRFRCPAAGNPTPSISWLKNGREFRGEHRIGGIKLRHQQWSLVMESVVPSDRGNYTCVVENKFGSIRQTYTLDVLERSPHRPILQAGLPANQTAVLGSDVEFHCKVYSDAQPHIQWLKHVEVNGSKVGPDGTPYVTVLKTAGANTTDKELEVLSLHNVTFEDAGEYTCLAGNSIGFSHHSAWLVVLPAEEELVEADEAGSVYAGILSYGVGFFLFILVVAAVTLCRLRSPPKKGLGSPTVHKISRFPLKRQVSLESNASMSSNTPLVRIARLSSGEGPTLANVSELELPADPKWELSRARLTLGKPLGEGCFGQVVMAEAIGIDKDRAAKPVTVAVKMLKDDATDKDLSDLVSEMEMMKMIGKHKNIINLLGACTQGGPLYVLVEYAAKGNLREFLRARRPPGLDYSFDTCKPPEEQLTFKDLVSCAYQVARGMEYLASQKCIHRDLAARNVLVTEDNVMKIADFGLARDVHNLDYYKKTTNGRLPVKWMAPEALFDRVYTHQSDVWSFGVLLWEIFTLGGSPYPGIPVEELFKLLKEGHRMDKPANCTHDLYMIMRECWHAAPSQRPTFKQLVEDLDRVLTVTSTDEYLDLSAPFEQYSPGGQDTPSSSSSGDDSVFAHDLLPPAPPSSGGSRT
T3 sequence (P11362 22-822): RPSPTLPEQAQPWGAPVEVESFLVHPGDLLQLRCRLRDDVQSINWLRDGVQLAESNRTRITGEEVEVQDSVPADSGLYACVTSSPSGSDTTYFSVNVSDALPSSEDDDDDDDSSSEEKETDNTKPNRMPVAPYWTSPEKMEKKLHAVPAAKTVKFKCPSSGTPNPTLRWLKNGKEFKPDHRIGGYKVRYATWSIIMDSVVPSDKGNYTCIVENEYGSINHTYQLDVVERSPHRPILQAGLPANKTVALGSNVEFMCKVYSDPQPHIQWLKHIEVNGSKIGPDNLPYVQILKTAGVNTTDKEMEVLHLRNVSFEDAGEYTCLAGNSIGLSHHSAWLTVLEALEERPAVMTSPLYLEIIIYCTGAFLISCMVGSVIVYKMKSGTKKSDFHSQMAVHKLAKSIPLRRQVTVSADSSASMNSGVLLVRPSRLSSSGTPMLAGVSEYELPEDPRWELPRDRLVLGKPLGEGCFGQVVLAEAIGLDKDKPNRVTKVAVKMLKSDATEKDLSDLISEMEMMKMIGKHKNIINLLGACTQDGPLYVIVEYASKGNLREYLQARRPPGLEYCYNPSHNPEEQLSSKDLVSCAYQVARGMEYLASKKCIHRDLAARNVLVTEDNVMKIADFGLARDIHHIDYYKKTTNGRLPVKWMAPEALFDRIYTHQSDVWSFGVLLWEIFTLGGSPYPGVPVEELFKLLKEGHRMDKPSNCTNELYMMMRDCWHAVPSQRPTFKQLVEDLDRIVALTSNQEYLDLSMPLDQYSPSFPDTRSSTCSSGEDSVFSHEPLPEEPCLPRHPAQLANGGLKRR

Structure (SMILES)	melting point [°C]	Kd (FGFR3) [M]	Kd (FGFR2) [M]	Kd (FGFR1) [M]	Kd (VEGFR2) [M]	Kd (FGFR4) [M]
COc1cc(OC)c(F)c(N(Cc2ncc[nH]2)c2ccc3ncn(C4CCNCC4)c(=O)c3c2)c1F [Compound 43]	223	2e-08	7.94e-09	1.58e-08	> 3.16e-06	5.01e-08
CNCCN(c1ccc2ncn(C3CCNCC3)c(=O)c2c1)c1cc(OC)cc(OC)c1F [Compound 58]	176	6.31e-07	3.98e-07	3.16e-07	> 3.16e-06	2e-06
COc1cc(OC)cc(N(CCCO)c2ccc3ncn(C4CCOCC4)c(=O)c3c2)c1 [Compound 66]	–	1.26e-06	5.01e-07	1.26e-06	> 3.16e-06	> 3.16e-06
CNCCN(c1ccc2ncn(C3CCOCC3)c(=O)c2c1)c1cc(OC)cc(OC)c1F [Compound 70]	178	7.94e-08	3.98e-08	3.16e-08	> 3.16e-06	1e-07
COc1cc(OC)cc(/C(=C\C#N)c2ccc3ncn(-c4cnn(C)c4)c(=O)c3c2)c1 [Compound 49]	217	7.94e-07	3.98e-07	2e-06	> 3.16e-06	> 3.16e-06
COc1cc(OC)c(F)c(N(CCO)c2ccc3ncn(-c4cncnc4)c(=O)c3c2)c1 [Compound 74]	200	3.98e-07	1.26e-07	7.94e-07	> 3.16e-06	2e-06
COc1cc(OC)c(F)c(N(CCO)c2ccc3ncn(C4CCNCC4)c(=O)c3c2)c1F [Compound 46]	186	1e-07	3.98e-08	1e-07	> 3.16e-06	7.94e-07
COc1cc(OC)c(F)c(N(Cc2nccn2S(=O)(=O)N(C)C)c2ccc3ncn(-c4ccncc4)c(=O)c3c2)c1F [Compound 40]	139	6.31e-08	3.16e-08	3.98e-08	1.58e-06	2.51e-07
COc1cc(OC)cc(N(CCCNC(C)C)c2ccc3ncn(C4CCNCC4)c(=O)c3c2)c1	255	–	–	–	–	–
COc1cc(OC)c(F)c(N(CCCO)c2ccc3ncn(C4CCNCC4)c(=O)c3c2)c1 [Compound 54]	167	6.31e-07	3.16e-07	7.94e-07	> 3.16e-06	> 3.16e-06
COc1cc(OC)c(F)c(N(Cc2ncc[nH]2)c2ccc3ncn(C4CCNCC4)c(=O)c3c2)c1 [Compound 45]	260	7.94e-08	3.16e-08	7.94e-08	> 3.16e-06	5.01e-07
COc1cc(OC)c(F)c(N(Cc2nccn2S(=O)(=O)N(C)C)c2ccc3ncn(C4CCN(C(=O)OC(C)(C)C)CC4)c(=O)c3c2)c1F	168	–	–	–	–	–
COc1cc(OC)c(F)c(N(CCNC(C)C)c2ccc3ncn(-c4cccnc4)c(=O)c3c2)c1 [Compound 33]	133	7.94e-09	1.58e-08	5.01e-09	1.58e-06	2.51e-08
COc1cc(OC)cc(N(CCCO)c2ccc3ncn(C4CCNCC4)c(=O)c3c2)c1 [Compound 55]	167	2.51e-06	2.51e-06	> 3.16e-06	> 3.16e-06	> 3.16e-06
CNCCN(c1ccc2ncn(C3CCNCC3)c(=O)c2c1)c1c(F)c(OC)cc(OC)c1F [Compound 57]	–	6.31e-08	3.98e-08	3.16e-08	2e-06	1.58e-07
COc1cc(OC)c(F)c(N(CCCNC(C)C)c2ccc3ncn(C4CCOCC4)c(=O)c3c2)c1 [Compound 72]	–	1.58e-08	1e-08	7.94e-09	2.51e-06	5.01e-08
COc1cc(OC)cc(N(CCCNC(C)C)c2ccc3ncn(C4CCOCC4)c(=O)c3c2)c1 [Compound 73′]	–	2e-07	6.31e-08	1.26e-07	–	1.26e-06
COc1cc(OC)c(F)c(N(CCO)c2ccc3ncn(-c4ccncc4)c(=O)c3c2)c1F [Compound 37]	198	5.01e-09	2.51e-09	1.58e-08	–	5.01e-08
COc1cc(OC)cc(N(Cc2nccn2S(=O)(=O)N(C)C)c2ccc3ncn(C4CCOCC4)c(=O)c3c2)c1 [Compound 68]	–	> 3.16e-06	–	1.26e-06	> 3.16e-06	> 3.16e-06
